This is an account of results in patent US20220323410A1, “OXYTOCIN ANTAGONIST DOSING REGIMENS FOR PROMOTING EMBRYO IMPLANTATION AND PREVENTING MISCARRIAGE” (ObsEva S.A., priority 2019, published 2022).

The conditions of data set [1]: crystal form with XRPD peaks of Table 1; cited from earlier work.
For the next data set, the target named is CYP2D6 (Homo sapiens, UniProt P10635). Nature of the data set: Metabolism by CYP2D6 isoform. The format is in vitro ADME. The following applies: substantially pure (3E) diastereomer; also CYP2C19. On the procedure:
(§1) At five time points over the course of a 45 minute experiment, the compounds were analyzed by LC-MS/MS. The percentage of each compound remaining at each time point, along with the metabolic half-lives of each compound in the presence of each cytochrome P450 isoform, are indicated in Tables 10-12, below.

A short description of data set [2]: Phase 2 clinical study of Example 1: serum level of compound (II) at embryo transfer. The format is in vivo. The following applies: female, human, mean. The text has this:
(§2) A total of 247 female subjects were selected for treatment based on a variety of inclusion criteria. Of these, 244 subjects completed the study. The study was open to healthy female volunteers from 18 to 36 years of age that had previously undergone up to one IVF or ICSI cycle that resulting in a negative pregnancy test as assessed by hCG detection, despite the transfer of at least one embryo of good quality, which was defined as an embryo having from six to eight blastomeres of uniform size and shape on the day of embryo transfer, ooplasm having no granularity, absence of multinucleation, and a maximum fragmentation of 10%. Subjects included in the study had at least one functional ovary and were capable of communicating with the investigator and research staff and complying with the requirements of the study protocol. Data are presented in the form of mean (standard deviation).
Subjects included in the study underwent an initial screening period beginning up to 12 weeks prior to the day of oocyte retrieval from the subject. During this 12-week period, subjects underwent physical and gynecological examination in preparation for oocyte retrieval. This analysis included a recordation of the subjects' vital signs, hematology and biochemistry analysis of blood samples withdrawn from the subjects, urinary analysis, and a comprehensive review of the subjects' medical histories.
At the conclusion of the screening period, subjects underwent controlled ovarian hyperstimulation by administration of a GnRH antagonist so as to prevent a premature rise in serum LH concentration. Concurrent pre-treatment with an oral contraceptive prior to controlled ovarian hyperstimulation was allowed, but not required. Final follicular maturation was performed with a single administration of hCG to the subject. […]
(§3) The embryo transfer procedure was conducted three days after the oocyte retrieval day (OPU+3 days). Subjects undergoing embryo transfer were monitored prior to initiating the procedure. […]

The subject of data set [3] is female human subjects undergoing embryo transfer therapy. Nature of the data set: Clinical studies of embryo implantation in subjects undergoing embryo transfer therapy (Example 1). The format is in vivo.
Text: as §2
Subjects included in the study underwent an initial screening period beginning up to 12 weeks prior to the day of oocyte retrieval from the subject. During this 12-week period, subjects underwent physical and gynecological examination in preparation for oocyte retrieval. […]
as §3

Data set [4] has as its system uterine contractions in human subjects. Nature of the data set: Uterine contractility in human subjects (Example 4). Conditions: in vivo. The text has this: Values along the y-axis represent the quantity of uterine contractions (UC) per minute.
Data set [5] has as its system endometrial blood flow in human subjects. Description: Endometrial blood flow in human subjects (Example 4). Conditions: in vivo. The text has this: Values along the y-axis represent endometrial flow index (FI), a parameter that is proportional to the volumetric quantity of blood that circulates through the endometrium in a given period of time.
Values along the y-axis represent endometrial vascularity index (VI), a parameter that is proportional to the total quantity of blood vessels in a subject's endometrium.
Values along the y-axis represent vascularity flow index (VFI), a parameter that is proportional to the total quantity of blood that circulates through a given volume of a subject's endometrium.

Data set [6] relates to subjects undergoing embryo transfer. Nature of the data set: Pregnancy and live birth rates, clinical study in subjects undergoing embryo transfer. The format is in vivo, human. Conditions: post hoc, pre-dose serum P4 quartiles 1-3; significant dose-dependent fashion (p<0.02). How it is done: From one to two embryos of good quality were transferred to each subject. To reduce uterine contractions at the time of embryo transfer, soft or ultra-soft catheters were used and contact with the uterine fundus was avoided. Any difficulties that occurred during the embryo transfer procedure were recorded, including instances in which uterine sounding or cervical dilation were required, instances in which a harder catheter was required, or instances in which blood was found in any part of the catheter.
Approximately 1 hour following embryo transfer, subjects underwent a final physical examination and were subsequently discharged from the clinical unit until the first follow-up visit, which occurred at about 14 days following oocyte retrieval (OPU+14 days). At this time, subjects underwent a physical examination as well as a blood sample analysis to assess pregnancy by detection of hCG. […] Pregnancy status was monitored by detecting embryo heartbeat. […]
Positive blood pregnancy test at 14 days following oocyte retrieval and positive embryo heartbeat at 10 weeks following oocyte retrieval were assessed in the same manner as described above. Change from baseline to the time of embryo transfer in uterine contraction rate was analyzed by the Wilcoxon Rank Sum Test by comparing the uterine contraction rate associated with each dose to that observed with placebo-treated subjects.

Another data set addresses CYP3A4 (Homo sapiens, UniProt P08684). Description: Metabolism by CYP3A4 isoform. The format is in vitro ADME. The following applies: substantially pure compound (II). On the procedure: as §1
A short description of data set [7]: Concentration of compound (II) after single oral dose in healthy female volunteers. The format is in vivo, human. The following applies: oral administration of either the 900 mg or the 1,800 mg dose; FIG. 6. How it is done: (§4) Particularly, subjects were pre-treated with estradiol valerate at a dosage of 2 mg administered 3 times per day (TID) for 16 days. Administration of estradiol valerate was followed by vaginal progesterone at a dosage of 200 mg administered TID.

The test system of a further data set is uterine contractions. Description: Uterine contractions by ultrasound in healthy female volunteers. The format is in vivo, human. The following applies: 1,800 mg dose. How it is done: as §4
(§5) These assessments included measurements of uterine contractions by ultrasound and uterine perfusion by a 3D-power Doppler technique.
(§6) Mean and median changes in uterine contraction frequency and endometrial vascularity indices (particularly, endometrial flow index (FI), vascularity index (VI), and vascularity flow index (VFI)) were calculated. […] Differences in endometrial mRNA expression were identified and assessed for statistical significance.

A further data set relates to endometrial perfusion. Nature of the data set: Uterine perfusion by 3D-power Doppler in healthy female volunteers. Type of data set: in vivo, human. Conditions: baseline to 24 hours; both 900 mg and 1,800 mg doses. On the procedure:
as §4, §5, §6

Data set [8] relates to endometrial RNA transcript expression. Description: Endometrial RNA transcript expression by RNA-Seq in healthy female volunteers. The following applies: 900 mg. The format is in vivo, human. On the procedure:
as §4, §5, §6
Using an RNA-Seq assay, each subject's expression of a variety of genes, including DPP4, CNTNAP3, CNTN4, CXCL12, TNXB, CTSE, OLFM4, KRT5, KRT6A, and IDO2, was then assessed to determine whether the expression of each gene increased, decreased, or underwent no significant change due to administration of the compound or placebo.

Data set [9] relates to spontaneous uterine contractions. The following applies: cited from earlier work.

Sequence of CYP2D6 (P10635 whole entry, canonical isoform): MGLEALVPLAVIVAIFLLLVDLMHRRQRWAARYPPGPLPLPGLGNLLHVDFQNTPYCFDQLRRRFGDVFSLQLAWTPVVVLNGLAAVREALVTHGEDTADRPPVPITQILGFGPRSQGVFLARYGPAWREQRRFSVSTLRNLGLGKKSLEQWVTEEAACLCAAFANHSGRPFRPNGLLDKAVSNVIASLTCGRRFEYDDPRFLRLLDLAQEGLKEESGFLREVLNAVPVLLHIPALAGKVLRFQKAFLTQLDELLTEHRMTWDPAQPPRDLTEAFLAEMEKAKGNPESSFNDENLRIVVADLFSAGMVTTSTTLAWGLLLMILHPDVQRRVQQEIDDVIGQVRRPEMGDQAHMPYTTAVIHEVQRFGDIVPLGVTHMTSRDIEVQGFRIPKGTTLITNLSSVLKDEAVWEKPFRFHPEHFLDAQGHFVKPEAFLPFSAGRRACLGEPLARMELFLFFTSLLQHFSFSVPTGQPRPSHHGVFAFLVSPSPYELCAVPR
Sequence of CYP3A4 (P08684 whole entry, canonical isoform): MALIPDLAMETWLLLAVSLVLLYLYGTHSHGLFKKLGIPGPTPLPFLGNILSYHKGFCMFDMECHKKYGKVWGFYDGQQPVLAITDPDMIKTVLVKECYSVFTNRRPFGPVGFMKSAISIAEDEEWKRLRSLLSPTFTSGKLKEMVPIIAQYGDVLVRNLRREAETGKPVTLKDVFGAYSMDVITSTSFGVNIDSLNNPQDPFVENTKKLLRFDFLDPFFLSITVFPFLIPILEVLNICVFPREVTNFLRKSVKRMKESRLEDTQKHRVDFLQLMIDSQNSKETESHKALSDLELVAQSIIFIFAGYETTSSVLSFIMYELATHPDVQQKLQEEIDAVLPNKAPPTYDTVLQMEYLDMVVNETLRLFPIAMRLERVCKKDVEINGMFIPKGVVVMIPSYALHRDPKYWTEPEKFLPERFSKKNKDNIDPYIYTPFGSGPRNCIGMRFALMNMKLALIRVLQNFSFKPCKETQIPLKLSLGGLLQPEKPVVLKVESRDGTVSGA

As for `CO/N=C1/C[C@@H](CO)N(C(=O)c2ccc(-c3ccccc3C)cc2)C1` [crystal form of compound (II), (3Z,5S)-5-(hydroxymethyl)-1-[(2′-methyl-1,1′-biphenyl-4-yl)carbonyl]pyrrolidin-3-one O-methyloxime], in data set [1], the “stability to aqueous media and physical stress” value was “enhanced stability to aqueous media and physical stress”.
For `CO/N=C1\C[C@@H](CO)N(C(=O)c2ccc(-c3ccccc3C)cc2)C1` [(3E) isomer, (3E,5S)-5-(hydroxymethyl)-1-[(2′-methyl-1,1′-biphenyl-4-yl)carbonyl]pyrrolidin-3-one O-methyloxime], the “Preferential metabolism by cytochrome P450 isoform” value at CYP2D6 is “preferentially metabolized by cytochrome P450 isoforms 2D6 (CYP2D6) and 2C19 (CYP2C19)”.
As for `CO/N=C1/C[C@@H](CO)N(C(=O)c2ccc(-c3ccccc3C)cc2)C1` [compound (II), (3Z,5S)-5-(hydroxymethyl)-1-[(2′-methyl-1,1′-biphenyl-4-yl)carbonyl]pyrrolidin-3-one O-methyloxime], the concentration at 4 hours in data set [2] (100 mg oral dose about 4 hours prior to embryo transfer, n = 62) was found to be 484 ng/mL; in data set [2] (300 mg oral dose about 4 hours prior to embryo transfer, n = 60), 1450 ng/mL; in data set [2] (900 mg oral dose about 4 hours prior to embryo transfer, n = 60) it was 4160 ng/mL. Moreover, the “successful embryo implantation rate” value in data set [3] (dose-dependent, particularly strong at pre-treatment serum P4 below 320 nM) was “improve successful embryo implantation rate”. Moreover, in data set [3] (human subjects that previously underwent ovarian hyperstimulation and oocyte retrieval), the “risk of embryo implantation failure” value is listed as “reduce the risk of embryo implantation failure”. For the same molecule, the uterine contractility result in data set [4] was “reduce uterine contractility”. Besides, in [5], the “flow of blood to the endometrium” value was “augment the flow of blood to the endometrium”. In addition, the “Pregnancy and live-birth rates versus placebo group” value in data set [6] was “overall increase in pregnancy and live-birth rates in the treatment arms versus the placebo group”. In addition, on CYP3A4, the “Preferential metabolism by cytochrome P450 isoform” value is reported as “preferentially metabolized by cytochrome P450 isoform 3A4 (CYP3A4)”. Also, the “Time at which maximum concentration is reached” value in data set [7] is “about 4 hours”. Besides, the “Proportion of subjects showing less than one uterine contraction per minute versus placebo” value in the data set with uterine contractions (p=0.0121) is listed as “significance was seen at the 8-hour time point”. Moreover, the “Number of uterine contractions per minute versus placebo” value with uterine contractions (p=0.0923 at 4 hours, p=0.0081 at 8 hours) is recorded as “contraction-reducing effects were observed from the 4-hour time point onwards”. Further, the “Endometrial perfusion parameters, median values” in the data set on endometrial perfusion was “marked and sustained increases in median values”. For the same molecule, the “mRNA expression in endometrial biopsy tissue compared to placebo” value in data set [8] is listed as “No differences in mRNA expression”. The “Reduction in spontaneous uterine contractions” value in data set [9] (10, 30, and 60 mg/kg, anesthetized late-term pregnant rats) is “dose-dependent reduction in spontaneous uterine contractions”. Also, in [9] (same vehicle, same model organism), the “Inhibitory activity with respect to uterine contraction versus (3E) diastereomer” value was “markedly higher than that of the substantially pure (3E) diastereomer”.
